Experimental data reported in the NIST ThermoML archive (doi:10.1016/j.jct.2011.11.026).
Numbers after ± are expanded uncertainties.

Key:
[1] = molar heat capacity at constant pressure; conditions: 298.15 K; 101.33 kPa; Crystal; Small sample (50 mg) DSC
[2] = Molar enthalpy of transition or fusion; conditions: Crystal; DSC
[3] = Crystal; DTA

Row | Compound | molar heat capacity at constant pressure [1] [J/K/mol] | Molar enthalpy of transition or fusion [2] [kJ/mol] | Normal melting temperature [3] [°C]
1 | Cc1ccc(S(N)(=O)=O)cc1 [p-toluenesulfonamide] | 205.46 ± 14 | 23.9 ± 0.73 | 137.27 ± 0.39
2 | Nc1ccccc1S(N)(=O)=O [2-aminobenzenesulfonamide] | 173.93 ± 21 | 23.4 ± 0.54 | 153.46 ± 0.39
3 | Cc1ccccc1S(N)(=O)=O [o-toluenesulfonamide] | 193.48 ± 21 | 28.3 ± 0.75 | 
4 | Nc1ccc(S(N)(=O)=O)cc1 [4-aminobenzenesulfonamide] | 199.76 ± 10 | 22.3 ± 0.51 | 164.53 ± 0.39
5 | NS(=O)(=O)c1ccccc1 [benzenesulfonamide] | 172.91 ± 9.4 | 23.7 ± 0.55 | 152.32 ± 0.39
